Source: patent publication US10795976B2, “Program randomization for cyber-attack resilient control in programmable logic controllers” (Siemens Aktiengesellschaft, priority 2016, dated 2020)
Where a name gives a salt, the structure may show the parent alone. Read-outs that look alike come from different tables or passages of the source.

What was measured:
C57BL/6JOlaHsd mice [1] = format: in vivo
[2] = tested on: CB2 receptor knockout mice; format: in vivo
mice = details: 5 mg/kg during postnatal days 5-13; measured at the age of 12 weeks; cited from earlier work
C57BL/6JOlaHsd mice [3] = assay: Ear scratch response (ESR) / grooming, urge-like behavior; format: in vivo
Procedure: 1. CB2 receptor selective ligands or CB2/SERM ligands were injected intraperitoneally or orally at doses of 0.001 to 100 mg/kg one to two hours before the injection of DOI. In order to test the effect of DOI on head twitch responses, ear scratch and grooming responses, DOI was intraperitoneally injected at a dose of 1 mg/kg.
ESR behavior is a measure for urge-like behavior and often preceded HTRs. The ESR is a rapid scratching movement of the head, neck, ears, or other body surfaces by either hindlimbs. The number of ESRs was manually counted. Every ESR was also counted as a grooming. In some experiments, each ESR was considered as a separate episode if the animal moved. In some experiments, each ESR was considered as a separate episode for every ESR.
Grooming behavior is a measure for anxiety. Grooming behavior in mice is characterized by licking its fur, groom with the forepaws, or scratch with any limb. Often the mouse will mix all of these grooming behaviors. The number of grooms was manually counted. In some experiments, each grooming behavior was considered as a separate episode if the animal moved its hindlimbs. In some experiments, each grooming behavior was considered as a separate episode for every grooming behavior.

Sabra mice = assay: Ultrasonic vocals after postnatal SR141716A (vocal tic-like behavior); format: in vivo
[4] = tested on: Tourette syndrome (TS) patients; details: patient reports; cited from earlier work
C57BL/6JOlaHsd mice [5] = assay: Marble burying test (MBT), compulsive behavior; format: in vivo; details: one hour after a single injection, age 6 weeks
Procedure: Mice were habituated to the test room for 1 h. A mouse was injected with DOI as above and then placed in the experimental cage (white plastic 36×24.5×14.5 cm) filled with 5 cm sawdust for 5 min, in the absence of marbles. The mouse was taken out and twenty black glass were arranged 4 by 5 with 7 cm apart and 1 cm apart from the wells of the cage. Each mouse was tested for its marble burying activity for 30 min. Activity was videotaped with EthoVision and buried marbles were counted manually at the end of the experiment (after 30 min). A marble considered as buried when it was sawdust-covered by two third of its volume.
Marbles that were moved were also counted.
With a view to study the effect of the JTE-907 and M1 compositions on repetitive behavior, C57BL/6JOlaHsd mice were intraperitoneally injected at age 6 weeks with a single dose of JTE-907 at 0.2-50 mg/kg, M1 at 0.2-50 mg/kg or equivalent vehicle. The number of buried marbles in the burying marble test by each mouse was recorded.

cyclooxygenase 2 (COX-2) = target: T1, cyclooxygenase 2 (COX-2) (Homo sapiens, UniProt P35354); details: Schuehly et al. 2011; cited from earlier work
T1 sequence (P35354 18-604): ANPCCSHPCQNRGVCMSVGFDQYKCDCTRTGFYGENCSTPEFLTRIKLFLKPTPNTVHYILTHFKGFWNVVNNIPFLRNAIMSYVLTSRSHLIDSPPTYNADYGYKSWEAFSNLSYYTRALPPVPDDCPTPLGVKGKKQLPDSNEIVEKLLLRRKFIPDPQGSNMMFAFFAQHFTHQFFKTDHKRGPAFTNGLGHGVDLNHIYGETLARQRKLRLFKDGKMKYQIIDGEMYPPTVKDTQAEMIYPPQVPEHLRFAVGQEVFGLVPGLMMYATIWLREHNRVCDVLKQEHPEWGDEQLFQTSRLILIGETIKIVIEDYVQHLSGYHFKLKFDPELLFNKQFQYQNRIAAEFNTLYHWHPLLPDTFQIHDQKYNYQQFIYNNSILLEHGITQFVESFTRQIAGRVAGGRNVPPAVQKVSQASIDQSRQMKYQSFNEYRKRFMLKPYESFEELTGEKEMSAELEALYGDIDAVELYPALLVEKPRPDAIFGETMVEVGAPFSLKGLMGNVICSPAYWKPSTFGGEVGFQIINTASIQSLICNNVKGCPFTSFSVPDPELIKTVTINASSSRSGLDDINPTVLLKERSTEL

osteoclastogenesis = details: Schuehly et al. 2011; cited from earlier work
GPR55 = GPR55 (Homo sapiens, UniProt Q9Y2T6); details: Schuehly et al. 2011; cited from earlier work
Chain of GPR55 (Q9Y2T6 whole entry, species assumed): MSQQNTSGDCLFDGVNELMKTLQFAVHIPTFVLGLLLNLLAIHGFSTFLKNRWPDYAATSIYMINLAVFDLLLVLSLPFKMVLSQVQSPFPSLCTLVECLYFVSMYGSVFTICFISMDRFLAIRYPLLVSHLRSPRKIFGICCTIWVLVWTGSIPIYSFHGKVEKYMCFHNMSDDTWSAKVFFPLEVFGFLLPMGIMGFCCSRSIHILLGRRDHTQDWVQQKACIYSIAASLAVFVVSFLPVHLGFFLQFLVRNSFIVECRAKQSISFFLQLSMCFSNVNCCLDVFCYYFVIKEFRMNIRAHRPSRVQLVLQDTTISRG

[6] = 10 mg/kg i.p. single dose, one hour before DOI 1 mg/kg i.p., age 3 weeks
[7] = 0.2 mg/kg i.p. single dose, one hour before DOI 1 mg/kg i.p., age 3 weeks
[8] = 5 mg/kg i.p. single dose, one hour before DOI 1 mg/kg i.p., age 3 weeks
[9] = model inducer, 1 mg/kg i.p., age three weeks up to 21 weeks
[10] = 1-20 mg/kg i.p., no DOI, age 6 weeks

## O=C(c1ccc(OCCN2CCCCC2)cc1)c1c(-c2ccc(O)cc2)sc2cc(O)ccc12 [raloxifene]
C57BL/6JOlaHsd mice [1]; [6]
  DOI-induced HTR frequency: reduced

## CCCCCCC(C)(C)c1cc(OC)c([C@@H]2C=C(CO)[C@@H]3C[C@H]2C3(C)C)c(OC)c1 [HU-308, [(1R,2R,5R)-2-[2,6-dimethoxy-4-(2-methyloctan-2-yl)phenyl]-7,7-dimethyl-4-bicyclo[3.1.1]hept-3-enyl] methanol]
[2]; 5 mg/kg i.p., one hour before DOI 1 mg/kg i.p., male, age 6-21 weeks
  DOI-induced HTR frequency in CB2 receptor knockout mice: significantly reduces
C57BL/6JOlaHsd mice [1]; [7]
  DOI-induced HTR frequency: reduced
C57BL/6JOlaHsd mice [1]; 0.2 mg/kg i.p., saline instead of DOI, age 3 weeks
  repetitive behavior (HTR) with the drug alone: significantly increased
C57BL/6JOlaHsd mice [1]; [8]
  DOI-induced HTR frequency: reduced
mice
  motor tics/head twitches in the open field test: induce abnormal motor tics/head twitches

## CCN(CC)CCOc1ccc(C(=C(Cl)c2ccccc2)c2ccccc2)cc1 [clomiphene citrate]
C57BL/6JOlaHsd mice [1]; [6]
  DOI-induced HTR frequency: did not significantly reverse

## COc1cc(CC(C)N)c(OC)cc1I.Cl (single isomer, unassigned; (-)) [DOI, (−)-1-(2,5-dimethoxy-4-iodophenyl)-2-aminopropane hydrochloride]
[2]; model inducer, 1 mg/kg i.p., 6 weeks old
  HTR frequency in CB2 receptor knockout mice: increased
C57BL/6JOlaHsd mice [1]; [9]
  head twitch response: increased
C57BL/6JOlaHsd mice [3]; [9]
  ear scratch response and grooming behavior: increased

## Cc1c(C(=O)NN2CCCCC2)nn(-c2ccc(Cl)cc2Cl)c1-c1ccc(Cl)cc1 [SR141716A]
Sabra mice; administered at the age of one to two days
  vocalization of mice pups vs control litter mates: higher level of vocalization and/or higher number of vocals

## CCCCCc1cc(O)c2c(c1)OC(C)(C)[C@@H]1CCC(C)=C[C@@H]21 [Δ^9-tetrahydrocannabinol]
[4]
  tic frequency: ameliorate

## C=C1CC/C=C(\C)CC[C@@H]2[C@@H]1CC2(C)C [BCP, beta-caryophyllene]
C57BL/6JOlaHsd mice [1]; dose not stated
  DOI-induced repetitive head twitches: able to reduce

## CCCCCOc1c(OC)ccc2cc(C(=O)NCc3ccc4c(c3)OCO4)c(=O)[nH]c12 [JTE-907, N-(benzo[1,3]dioxol-5-ylmethyl)-7-methoxy-2-oxo-8-pentyloxy-1,2-dihydroquinoline-3-carboxamide]
C57BL/6JOlaHsd mice [5]; 5 mg/kg i.p.
  number of buried marbles: reduced
C57BL/6JOlaHsd mice [1]; [7]
  DOI-induced HTR frequency: reduced
C57BL/6JOlaHsd mice [1]; [8]
  DOI-induced HTR frequency: reduced

## C=CCc1ccc(O)c(-c2ccc(OC)c(CC=C)c2)c1 [MH, 2-(4-Methoxy-3-prop-2-enylphenyl)-4-prop-2-enylphenol]
Cyclooxygenase 2 (COX-2)
  COX-2 enzymatic activity: inhibits
C57BL/6JOlaHsd mice [5]; 10 mg/kg i.p.
  number of buried marbles: reduced
Sabra mice; SR141716A 5 mg/kg s.c. postnatal day 1-3, drug 5 mg/kg s.c. at age 13 days, one hour before recording
  vocal tic-like behavior (number of ultrasonic vocal events): significantly reduces
C57BL/6JOlaHsd mice [1]; 1 mg/kg i.p. single dose, one hour before DOI 1 mg/kg i.p., age 3 weeks
  DOI-induced HTRs: reduced
C57BL/6JOlaHsd mice [1]; 1 mg/kg i.p. single dose, one hour before DOI 1 mg/kg i.p., age 6 weeks
  DOI-induced HTRs: reduced
C57BL/6JOlaHsd mice [1]; 1 mg/kg oral (gavage) in self-emulsifying oral formulation, two hours before DOI 1 mg/kg i.p., age 3 weeks
  DOI-induced HTR frequency: significantly reduced
C57BL/6JOlaHsd mice [1]; [8]
  DOI-induced HTR frequency: reduced
C57BL/6JOlaHsd mice [1]; 5 mg/kg i.p. single dose, one hour before DOI 1 mg/kg i.p., age 6 weeks
  DOI-induced HTRs: reduced
C57BL/6JOlaHsd mice [1]; 5 mg/kg oral (gavage) in self-emulsifying oral formulation, two hours before DOI 1 mg/kg i.p., age 3 weeks
  DOI-induced HTR frequency: significantly reduced
C57BL/6JOlaHsd mice [1]; [10]
  HTR induced by the drug alone: did not induce HTR at any dose
C57BL/6JOlaHsd mice [1]; i.p., 20 min from DOI injection, age 3 weeks vs 6 weeks
  effect to reverse DOI-induced HTR, comparison of ages: higher at age 3 weeks than 6 weeks
C57BL/6JOlaHsd mice [1]; oral formulation, age 3 weeks
  effect on DOI-induced HTR frequency, 1 mg/kg compared with 5 mg/kg: greater
osteoclastogenesis
  osteoclastogenesis: potently inhibits
GPR55
  GPR55 activity: not
C57BL/6JOlaHsd mice [3]; [10]
  urge-like response induced by the drug alone: did not induce urge-like response at any dose
C57BL/6JOlaHsd mice [3]; i.p., one hour before DOI 1 mg/kg i.p., dose not given
  frequency of DOI-induced ESR behavior (urge-like behavior): reduced
